Test system: synthesis of PGI2
Test: Prostacyclin stimulation in whole blood (collagen-induced PGI2 formation, 6-keto-PGF1 alpha by radioimmunoassay)
Type: cell-based
Text: The 1,4-dihydropyridines to be used according to the invention also stimulate the synthesis of PGI2. In contrast to thromboxane, which has a vasoconstricting action and initiates platelet aggregation, PGI^2 has a vasodilating action and inhibits platelet aggregation.
The formation of PGI2 can be induced in whole blood by collagen. The endoperoxides formed in platelets are probably converted into PGI2 by […]. The stable end product of the PGI2 conversion, 6-keto-PGF1 α, is determined radioimmunologically.

Row | SMILES | Stimulation (%) (prostacyclin stimulation)
1 | CC1=C(C(=O)OCCCc2cccnc2)C(c2ccc(C(=O)NCc3ccco3)cc2)C(C(=O)OCCCc2cccnc2)=C(C)N1 [Example 11, Di-3-(pyrid-3-yl)-propyl 4-[4-N-(2-furylmethyl)-carbamoylphenyl]-1,4-dihydro-2,6-dimethyl-pyridine-3,5-dicarboxylate] | ~ 100%
2 | CC1=C(C(=O)OCCCc2cccnc2)C(c2ccc(CO)cc2)C(C(=O)OCCCc2cccnc2)=C(C)N1 [Example 1, Di-3-(pyrid-3-yl)-propyl 1,4-dihydro-4-(4-hydroxymethylphenyl)-2,6-dimethylpyridine-3,5-dicarboxylate] | 158%
3 | CC1=C(C(=O)OCCCc2cccnc2)CC(C(=O)OCCCc2cccnc2)=C(C)N1 [Example 4, Di-3-(pyrid-3-yl)-propyl 1,4-dihydro-2,6-dimethylpyridine-3,5-dicarboxylate] | ~ 50%
4 | COC(=O)C1C(C(=O)OCCCc2cccnc2)=C(C)NC(C)=C1C(=O)OCCCc1cccnc1 [Example 5, 4-Methyl 3,5-di-3-(pyrid-3-yl)-propyl 1,4-dihydro-2,6-dimethyl-pyridine-3,4,5-tricarboxylate] | 100%
5 | CC1=C(C(=O)OCCCc2cccnc2)C(c2ccc(C(=O)NCc3cccnc3)cc2)C(C(=O)OCCCc2cccnc2)=C(C)N1 [Example 10, Di-3-(pyrid-3-yl)-propyl 1,4-dihydro-2,6-dimethyl-4-[4-N-(pyrid-3-ylmethyl)-carbamoylphenyl]-pyridine-3,5-dicarboxylate] | ~ 50%

From patent US4686229A, “1,4-dihydropyridines” (Bayer Aktiengesellschaft, priority 1984, dated 1987)
